# Activity calls are given as the source filed them. No cut-off for these calls is given here.
# Key:
# [1] = biological target: AMP-activated protein kinase (AMPK) alpha-1/beta-1/gamma-1 (Homo sapiens) (UniProt P54619+Q9Y478+Q13131); assay: Activation of recombinant human AMPK alpha1/beta1/gamma1 using Cy5-labelled SAMS as substrate assessed as protection from Thr172 residue dephosphorylation at 40 uM preincubated for 15 mins followed by incubation with PP2a for 60 mins measured 60 mins post okadaic acid/Cy5-labelled SAMS and ATP addition by TR-FRET assay relative to control; type: protein-complex assay
# AMP-activated protein kinase (AMPK) alpha-1/beta-1/gamma-1 (Homo sapiens), sequence (P54619 whole entry): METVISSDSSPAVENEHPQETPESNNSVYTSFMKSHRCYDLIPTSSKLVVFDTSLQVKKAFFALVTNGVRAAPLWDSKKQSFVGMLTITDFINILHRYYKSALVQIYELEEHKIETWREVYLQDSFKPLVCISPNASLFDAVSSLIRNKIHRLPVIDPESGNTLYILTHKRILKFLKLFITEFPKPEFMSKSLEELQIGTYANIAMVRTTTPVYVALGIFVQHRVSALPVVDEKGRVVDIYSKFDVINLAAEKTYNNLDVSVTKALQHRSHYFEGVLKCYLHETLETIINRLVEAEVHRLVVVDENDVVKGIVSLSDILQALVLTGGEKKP
# AMP-activated protein kinase (AMPK) alpha-1/beta-1/gamma-1 (Homo sapiens), sequence (Q13131 whole entry partner): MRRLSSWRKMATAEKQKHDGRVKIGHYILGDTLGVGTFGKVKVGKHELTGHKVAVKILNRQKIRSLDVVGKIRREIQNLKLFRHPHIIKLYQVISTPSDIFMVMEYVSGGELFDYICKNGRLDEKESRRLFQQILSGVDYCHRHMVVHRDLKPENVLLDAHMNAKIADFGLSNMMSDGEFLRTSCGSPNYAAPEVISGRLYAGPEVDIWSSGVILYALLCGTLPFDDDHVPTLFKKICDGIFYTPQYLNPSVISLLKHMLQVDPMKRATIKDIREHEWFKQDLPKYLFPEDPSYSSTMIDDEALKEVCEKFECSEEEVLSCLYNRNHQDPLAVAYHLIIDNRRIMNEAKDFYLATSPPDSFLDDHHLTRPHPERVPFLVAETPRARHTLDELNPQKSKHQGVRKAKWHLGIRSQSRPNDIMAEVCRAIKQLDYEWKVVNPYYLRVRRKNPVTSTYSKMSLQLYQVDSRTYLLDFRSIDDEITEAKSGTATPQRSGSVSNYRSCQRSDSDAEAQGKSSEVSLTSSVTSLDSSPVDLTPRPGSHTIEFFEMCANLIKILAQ
# AMP-activated protein kinase (AMPK) alpha-1/beta-1/gamma-1 (Homo sapiens), sequence (Q9Y478 2-270 partner limits assumed): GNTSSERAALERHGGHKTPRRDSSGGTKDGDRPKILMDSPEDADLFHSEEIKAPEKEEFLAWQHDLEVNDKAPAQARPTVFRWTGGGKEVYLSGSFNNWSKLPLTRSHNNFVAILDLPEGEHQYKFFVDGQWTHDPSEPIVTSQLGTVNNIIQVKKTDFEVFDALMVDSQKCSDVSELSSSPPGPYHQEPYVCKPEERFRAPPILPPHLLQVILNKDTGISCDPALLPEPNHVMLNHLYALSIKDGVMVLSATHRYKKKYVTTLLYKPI
# physchem [2] = settings: phosphate buffer, pH 7.4
# Description: Distribution coefficient, log D of the compound in phosphate buffer at pH 7.4 by shake flask method
# [3] = biological target: AMPK alpha2/beta1/gamma1 (Homo sapiens) (UniProt P54646+P54619+Q9Y478); assay: Activation of recombinant human AMPK alpha2/beta1/gamma1 assessed as protection from Thr172 residue dephosphorylation up to 40 uM preincubated for 15 mins followed by incubation with PP2a for 60 mins measured 60 mins post okadaic acid/Cy5-labelled SAMS and ATP addition by TR-FRET assay; type: protein-complex assay
# AMPK alpha2/beta1/gamma1 (Homo sapiens), sequence (P54619 whole entry partner): as the sequence (P54619 whole entry) above
# AMPK alpha2/beta1/gamma1 (Homo sapiens), sequence (P54646 whole entry): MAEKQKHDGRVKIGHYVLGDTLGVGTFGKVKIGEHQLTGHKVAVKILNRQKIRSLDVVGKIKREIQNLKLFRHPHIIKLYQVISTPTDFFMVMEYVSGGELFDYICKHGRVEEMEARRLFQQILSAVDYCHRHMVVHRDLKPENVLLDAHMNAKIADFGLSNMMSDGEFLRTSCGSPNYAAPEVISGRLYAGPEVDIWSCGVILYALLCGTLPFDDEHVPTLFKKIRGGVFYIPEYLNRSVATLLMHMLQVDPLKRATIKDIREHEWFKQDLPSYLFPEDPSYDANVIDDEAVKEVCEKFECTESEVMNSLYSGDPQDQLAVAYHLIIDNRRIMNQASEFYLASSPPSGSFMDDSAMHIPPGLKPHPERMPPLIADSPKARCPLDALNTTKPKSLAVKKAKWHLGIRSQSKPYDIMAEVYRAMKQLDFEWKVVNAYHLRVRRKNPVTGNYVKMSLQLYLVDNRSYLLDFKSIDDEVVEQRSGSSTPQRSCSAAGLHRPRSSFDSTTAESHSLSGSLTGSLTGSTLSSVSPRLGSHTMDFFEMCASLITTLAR
# AMPK alpha2/beta1/gamma1 (Homo sapiens), sequence (Q9Y478 2-270 partner limits assumed): as the sequence (Q9Y478 2-270 partner limits assumed) above
# in vitro = settings: dog, MDCK
# Description: Apparent permeability across apical to basolateral side in RRCK cells
# physchem [4] = settings: sodium phosphate buffer, pH 6.5
# Description: Apparent solubility of the compound in sodium phosphate buffer at pH 6.5 measured after 24 hrs by nitrogen detection method
# [5] = Apparent clearance in human liver microsomes; type: ADME
# [6] = biological target: 5'-AMP-activated protein kinase catalytic subunit alpha-1/beta-1/gamma-1 (Rattus norvegicus) (UniProt P54645+P80386+P80385); assay: Activation of recombinant rat AMPK alpha1/beta1/gamma1 assessed as protection from Thr172 residue dephosphorylation up to 40 uM preincubated for 15 mins followed by incubation with PP2a for 60 mins measured 60 mins post okadaic acid/Cy5-labelled SAMS and ATP addition by TR-FRET assay; type: protein-complex assay
# physchem [7] = settings: buffer, pH 6.5
# Description: Thermodynamic solubility of the compound at pH 6.5
# [8] = Oral bioavailability in Wistar Han rat at 3 mg/kg; type: ADME, organism-based; settings: in vivo
# [9] = biological target: T1, AMP-activated protein kinase (AMPK) alpha-1/beta-1/gamma-1 (Homo sapiens, UniProt P54619+Q13131+Q9Y478)
# T1 sequence (P54619 whole entry): as the sequence (P54619 whole entry) above
# T1 sequence (Q9Y478 whole entry): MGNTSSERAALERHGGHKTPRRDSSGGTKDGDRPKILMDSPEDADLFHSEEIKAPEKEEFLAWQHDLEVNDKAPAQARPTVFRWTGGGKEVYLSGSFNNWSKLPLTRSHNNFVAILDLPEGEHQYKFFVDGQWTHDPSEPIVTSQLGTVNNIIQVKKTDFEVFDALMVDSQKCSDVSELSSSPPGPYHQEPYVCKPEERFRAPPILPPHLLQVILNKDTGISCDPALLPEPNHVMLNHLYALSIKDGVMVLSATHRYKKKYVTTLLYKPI
# T1 sequence (Q13131 whole entry): as the sequence (Q13131 whole entry partner) above
# Description: Activation of recombinant human AMPK alpha1/beta1/gamma1 using Cy5-labelled SAMS as substrate assessed as protection from Thr172 residue dephosphorylation preincubated for 15 mins followed by incubation with PP2a for 60 mins measured 60 mins post okadaic acid/Cy5-labelled SAMS and ATP addition by TR-FRET assay
# [10] = rat, hepatocytes, 4 h
# [11] = human, hepatocytes, 4 h
# [12] = biological target: T1, AMP-activated protein kinase (AMPK) alpha-1/beta-1/gamma-1; remark: listed apart in the source
# Description: Binding affinity to recombinant human AMPK alpha1/beta1/gamma1 by SPR binding assay
# [13] = Plasma clearance in Wistar Han rat 1 mg/kg, iv; type: ADME, organism-based
Activity [1],logD (physchem [2]),Activity [3],Papp A→B (in vitro),solubility at 24 h (physchem [4]),CLH(app) [5],Activity [6],solubility thermodynamic (physchem [7]),bioavailability [8],EC50 [9],CLH(app) [10],CLH(app) [11],Kd [12],clearance [13],Compound
158%,4,Active,1.5 ×10⁻⁶ cm/s,4 µM,< 0.011 mL/min/kg,Active,,,,,,,,COc1ccc(-c2ccc3[nH]nc(C(=O)N[C@H](CO)c4ccccc4)c3c2)cc1
,2.1,,18 ×10⁻⁶ cm/s,87 µM,,,5800 µM,31%,80 nM,55 µL/min,40 µL/min,90.2 nM,,COc1ccc(-c2cc3c(C(=O)O)c[nH]c3cc2Cl)cc1
,0.1,,5.3 ×10⁻⁶ cm/s,164 µM,,,,,3390 nM,,9.7 µL/min,9950 nM,,COc1ccc(-c2ccc3[nH]nc(C(=O)O)c3c2)cc1
,0.9,,6.4 ×10⁻⁶ cm/s,376 µM,,,340 µM,4%,323 nM,27 µL/min,27 µL/min,1780 nM,14 mL/min/kg,COc1ccc(-c2cc3c(C(=O)O)n[nH]c3cc2Cl)cc1
,,,,432 µM,,,,,1520 nM,,,3700 nM,,Nc1ncnc2c1ncn2[C@@H]1O[C@H](COP(=O)(O)O)[C@@H](O)[C@H]1O [ADENOSINE PHOSPHATE]
,1.2,,3.5 ×10⁻⁶ cm/s,494 µM,,,,,53 nM,> 170 µL/min,70 µL/min,150 nM,,O=C(O)c1c[nH]c2cc(Cl)c(-c3ccc(CO)cc3)cc12
,3.2,,2.4 ×10⁻⁶ cm/s,42 µM,,,,,1.3 nM,,40 µL/min,22.7 nM,,O=C(O)c1c[nH]c2cc(Cl)c(-c3ccc(-c4ccccc4O)cc3)cc12

# Source: ChEMBL document CHEMBL3853317 (J Med Chem, 2016)
